Test results: the NIST ThermoML archive (doi:10.1016/j.tca.2014.11.008)
Numbers after ± are expanded uncertainties.

Details: Crystal; visual observation

Normal melting temperature: 138.70 ± 1.3 °C
SMILES: O=C(O)c1ccsc1 [β-thiophenecarboxylic acid]
